Assay results from article PMC5834492, “Antimycobacterial drug discovery using Mycobacteria-infected amoebae identifies anti-infectives and new molecular targets” (Scientific Reports, 2018).

Test system: M. marinum GFP
Assay type: cell-based, Mycobacterium marinum
Details: 10 µM; antibiotic assay

Compound	M. marinum GFP normalised growth, control=1.00, mean
Nc1cccnc1Nc1ccc(Cl)cc1 [GR135486X]	0.83
Cc1occc1C(=O)Nc1nc(-c2ccccn2)nc2ccsc12 [GSK237561A]	0.31
N#Cc1ccc2c(c1)CCN(CCCSc1ccnc3cc(C(F)(F)F)ccc13)CC2 [GSK254610A]	0.05
CN1CCN(c2cc(-c3ccncc3)nc(-c3ccccc3)n2)CC1 [GSK275984A]	0.26
COc1cc(C(F)(F)F)nc2ccc(C)c(N)c12 [GSK345724A]	0.29
O=C(NNC(=O)c1ccc([N+](=O)[O-])o1)c1ccc2ccccc2c1 [GSK347301A]	1.03

Test system: M. marinum luxCDABE
Assay type: cell-based, Mycobacterium marinum
Details: 10 µM

Compound	M. marinum luxCDABE normalised growth, control=1.00, mean	M. marinum luxCDABE normalised growth, control = 1.00, mean
Nc1cccnc1Nc1ccc(Cl)cc1 [GR135486X]	1.00	
Cc1occc1C(=O)Nc1nc(-c2ccccn2)nc2ccsc12 [GSK237561A]	0.00	
N#Cc1ccc2c(c1)CCN(CCCSc1ccnc3cc(C(F)(F)F)ccc13)CC2 [GSK254610A]	0.00	0,00
CN1CCN(c2cc(-c3ccncc3)nc(-c3ccccc3)n2)CC1 [GSK275984A]	0.065	
COc1cc(C(F)(F)F)nc2ccc(C)c(N)c12 [GSK345724A]	0.31	
O=C(NNC(=O)c1ccc([N+](=O)[O-])o1)c1ccc2ccccc2c1 [GSK347301A]	0.19	

Test system: Mtb H37Rv in THP-1
Design: method as in Sorrentino et al, 2015
Details: THP1 / Mtb H37Rv infection assay; ref Sorrentino et al, 2015; cited from earlier work

Compound	Intracelullar MIC90 in THP-1
Nc1cccnc1Nc1ccc(Cl)cc1 [GR135486X]	5.55 µM
Cc1occc1C(=O)Nc1nc(-c2ccccn2)nc2ccsc12 [GSK237561A]	1.85 µM
CN1CCN(c2cc(-c3ccncc3)nc(-c3ccccc3)n2)CC1 [GSK275984A]	5.55 µM
COc1cc(C(F)(F)F)nc2ccc(C)c(N)c12 [GSK345724A]	1.85 µM
O=C(NNC(=O)c1ccc([N+](=O)[O-])o1)c1ccc2ccccc2c1 [GSK347301A]	16.65 µM

Same assay, conditions: ratio; ref Sorrentino et al, 2015; cited from earlier work

Compound	Extracellular MIC90/ Inracellular MIC90
Nc1cccnc1Nc1ccc(Cl)cc1 [GR135486X]	0.04
Cc1occc1C(=O)Nc1nc(-c2ccccn2)nc2ccsc12 [GSK237561A]	2.16
CN1CCN(c2cc(-c3ccncc3)nc(-c3ccccc3)n2)CC1 [GSK275984A]	1.62
COc1cc(C(F)(F)F)nc2ccc(C)c(N)c12 [GSK345724A]	2.86
O=C(NNC(=O)c1ccc([N+](=O)[O-])o1)c1ccc2ccccc2c1 [GSK347301A]	0.5

Test system: Mtb H37Rv
Design: method as in Sorrentino et al, 2015
Details: ref Sorrentino et al, 2015; cited from earlier work

Compound	Extracellular MIC90
Nc1cccnc1Nc1ccc(Cl)cc1 [GR135486X]	0.2 µM
Cc1occc1C(=O)Nc1nc(-c2ccccn2)nc2ccsc12 [GSK237561A]	4 µM
CN1CCN(c2cc(-c3ccncc3)nc(-c3ccccc3)n2)CC1 [GSK275984A]	9 µM
COc1cc(C(F)(F)F)nc2ccc(C)c(N)c12 [GSK345724A]	5.3 µM
O=C(NNC(=O)c1ccc([N+](=O)[O-])o1)c1ccc2ccccc2c1 [GSK347301A]	8.3 µM

Test system: M. marinum in A. castellanii
Assay type: cell-based, Mycobacterium marinum
Details: 10 µM

Compound	A. castellanii / M. marinum normalised growth, control=1.00, mean	Hits A. castellanii/M. marinum assay True/False
Nc1cccnc1Nc1ccc(Cl)cc1 [GR135486X]	0.97	
Cc1occc1C(=O)Nc1nc(-c2ccccn2)nc2ccsc12 [GSK237561A]	1.57	
N#Cc1ccc2c(c1)CCN(CCCSc1ccnc3cc(C(F)(F)F)ccc13)CC2 [GSK254610A]	0.87	FALSE
CN1CCN(c2cc(-c3ccncc3)nc(-c3ccccc3)n2)CC1 [GSK275984A]	1.13	
COc1cc(C(F)(F)F)nc2ccc(C)c(N)c12 [GSK345724A]	1.16	
O=C(NNC(=O)c1ccc([N+](=O)[O-])o1)c1ccc2ccccc2c1 [GSK347301A]	0.90	

Test system: D. discoideum GFP-ABD
Details: 10 µM

Compound	D. discoideum GFP-ABD normalised growth, control=1.00, mean
Nc1cccnc1Nc1ccc(Cl)cc1 [GR135486X]	0.35
Cc1occc1C(=O)Nc1nc(-c2ccccn2)nc2ccsc12 [GSK237561A]	-0.0741
N#Cc1ccc2c(c1)CCN(CCCSc1ccnc3cc(C(F)(F)F)ccc13)CC2 [GSK254610A]	0.88
CN1CCN(c2cc(-c3ccncc3)nc(-c3ccccc3)n2)CC1 [GSK275984A]	0.52
COc1cc(C(F)(F)F)nc2ccc(C)c(N)c12 [GSK345724A]	0.95
O=C(NNC(=O)c1ccc([N+](=O)[O-])o1)c1ccc2ccccc2c1 [GSK347301A]	0.49

Test system: M. marinum in BV2 microglial cells
Assay type: cell-based, Mycobacterium marinum
Details: not given

Compound	IC50
Nc1cccnc1Nc1ccc(Cl)cc1 [GR135486X]	10.8 µM
Cc1occc1C(=O)Nc1nc(-c2ccccn2)nc2ccsc12 [GSK237561A]	3.9 µM
CN1CCN(c2cc(-c3ccncc3)nc(-c3ccccc3)n2)CC1 [GSK275984A]	5.11 µM
COc1cc(C(F)(F)F)nc2ccc(C)c(N)c12 [GSK345724A]	8.6 µM
O=C(NNC(=O)c1ccc([N+](=O)[O-])o1)c1ccc2ccccc2c1 [GSK347301A]	6.58 µM

Same assay, conditions: 10 µM

Compound	BV2 / M. marinum normalised growth, control=1.00, mean	hit in BV2/M. marinum assay True/False
Nc1cccnc1Nc1ccc(Cl)cc1 [GR135486X]	0.75	
Cc1occc1C(=O)Nc1nc(-c2ccccn2)nc2ccsc12 [GSK237561A]	0.73	
N#Cc1ccc2c(c1)CCN(CCCSc1ccnc3cc(C(F)(F)F)ccc13)CC2 [GSK254610A]	0.50	TRUE
CN1CCN(c2cc(-c3ccncc3)nc(-c3ccccc3)n2)CC1 [GSK275984A]	0.62	
COc1cc(C(F)(F)F)nc2ccc(C)c(N)c12 [GSK345724A]	0.87	
O=C(NNC(=O)c1ccc([N+](=O)[O-])o1)c1ccc2ccccc2c1 [GSK347301A]	0.97	
